Test results reported in US10800791B2, “Triazole ACC inhibitors and uses thereof” (Gilead Apollo, LLC, priority 2015, dated 2020).
≈ marks a conversion by molar mass, not a printed value. Like-named read-outs stand apart in the source and are kept apart here.

Experiments:
[1] = tested on: Fusarium moniliforme (Fm); assay: Growth inhibition assay of fungal pathogens, Fm; assay type: cell-based; conditions: for IC90: Fusarium verticillioides, 48 h, read-out: Concentration at 90% Inhibition Fm
Procedure, shortened: (§1)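 Inhibition percentages reflect 48 h OD600 and visual scores relative to a 2% DMSO control. Test concentrations were 50, 10, 2 ppm or 2, 0.4, 0.08 ppm final, applied to spores in 17% V8 medium.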

[2] = tested on: Fusarium virguliforme (Fv); assay: Growth inhibition assay of fungal pathogens, Fv; assay type: cell-based; conditions: 48 h
Procedure, shortened: as §1

[3] = molecular target: human (hACC2) (Homo sapiens, UniProt O00763); assay: In vitro ACC inhibition assay (ADP-Glo), hACC2; assay type: biochemical; conditions: 5 nM ACC2, 20 μM ATP, 20 μM acetyl-CoA
Description: The detailed procedure is as follows. […] 10 μL ADP glo reagent was added. […] 20 μL kinase detection reagent was added.

[4] = tested on: C. albicans; assay: Antifungal Activity Assay (broth microtiter MIC), C. albicans; assay type: cell-based, Candida albicans; conditions: Candida albicans, ATCC90028, 48 h
Procedure, shortened: (§2)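 MIC read by eye at 48 h, comparing challenged wells with the growth control. Yeasts grown overnight on Sabouraud dextrose agar at 35° C, suspended in RPMI 1640+MOPS and added at 2.5×10^3 CFU/mL final, following CLSI M27-A3.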

[5] = tested on: Rhizoctonia solani (Rs); assay: Growth inhibition assay of fungal pathogens, Rs; assay type: cell-based; conditions: 48 h
[6] = molecular target: fungal (fACC2) (UniProt Q00955); conditions: read-out: fACC2 (in vitro ACC2 Inhibition Assay, IC50), ADP-Glo, 5 nM ACC2, 20 μM ATP, 20 μM acetyl-CoA
[7] = tested on: Botrtyis cinerea (Bc); assay: Growth inhibition assay of fungal pathogens, Bc; assay type: cell-based; conditions: 48 h
Procedure, shortened: as §1

[8] = tested on: C. parapsilosis; assay: Antifungal Activity Assay (broth microtiter MIC), C. parapsilosis; assay type: cell-based, Candida parapsilosis; conditions: Lodderomyces parapsilosis, ATCC22019, 48 h
Procedure, shortened: as §2

[9] = tested on: Septoria tritici (St); assay: Growth inhibition assay of fungal pathogens, St; assay type: cell-based; conditions: Zymoseptoria tritici, 48 h
Procedure, shortened: as §1

[10] = tested on: Diplodia maydis (Dm); assay: Growth inhibition assay of fungal pathogens, Dm; assay type: cell-based; conditions: Stenocarpella maydis, 48 h
Procedure, shortened: as §1

[11] = Fusarium moniliforme, growth inhibition at 48 hours vs 2% DMSO control
[12] = Fusarium moniliforme, growth inhibition vs 2% DMSO control at 48 hours
[13] = growth inhibition at 48 hours vs 2% DMSO control, read-out: Concentration at 90% Inhibition Fv
[14] = growth inhibition vs 2% DMSO control at 48 hours, read-out: Concentration at 90% Inhibition Fv
[15] = Table 3a, ATCC 90028, 3 replicates, MIC recorded at 48 h, read-out: MIC, C. albicans ATCC 90028
[16] = Table 3b (additional results), ATCC 90028, 3 replicates, MIC recorded at 48 h, read-out: MIC, C. albicans ATCC 90028
[17] = mycelial plugs, growth inhibition at 48 hours vs 2% DMSO control, read-out: Concentration at 90% Inhibition Rs
[18] = mycelial plugs, growth inhibition vs 2% DMSO control at 48 hours, read-out: Concentration at 90% Inhibition Rs
[19] = Botrtyis cinerea, growth inhibition at 48 hours vs 2% DMSO control, read-out: Concentration at 90% Inhibition Bc
[20] = Botrtyis cinerea, growth inhibition vs 2% DMSO control at 48 hours, read-out: Concentration at 90% Inhibition Bc
[21] = Table 3a, ATCC 22019, 3 replicates, MIC recorded at 48 h, read-out: MIC, C. parapsilosis ATCC 22019
[22] = Table 3b (additional results), ATCC 22019, 3 replicates, MIC recorded at 48 h, read-out: MIC, C. parapsilosis ATCC 22019
[23] = Septoria tritici, growth inhibition at 48 hours vs 2% DMSO control, read-out: Concentration at 90% Inhibition St
[24] = Septoria tritici, growth inhibition vs 2% DMSO control at 48 hours, read-out: Concentration at 90% Inhibition St
[25] = Diplodia maydis, growth inhibition at 48 hours vs 2% DMSO control, read-out: Concentration at 90% Inhibition Dm
[26] = Diplodia maydis, growth inhibition vs 2% DMSO control at 48 hours, read-out: Concentration at 90% Inhibition Dm

Sequence of human (hACC2) (O00763 whole entry): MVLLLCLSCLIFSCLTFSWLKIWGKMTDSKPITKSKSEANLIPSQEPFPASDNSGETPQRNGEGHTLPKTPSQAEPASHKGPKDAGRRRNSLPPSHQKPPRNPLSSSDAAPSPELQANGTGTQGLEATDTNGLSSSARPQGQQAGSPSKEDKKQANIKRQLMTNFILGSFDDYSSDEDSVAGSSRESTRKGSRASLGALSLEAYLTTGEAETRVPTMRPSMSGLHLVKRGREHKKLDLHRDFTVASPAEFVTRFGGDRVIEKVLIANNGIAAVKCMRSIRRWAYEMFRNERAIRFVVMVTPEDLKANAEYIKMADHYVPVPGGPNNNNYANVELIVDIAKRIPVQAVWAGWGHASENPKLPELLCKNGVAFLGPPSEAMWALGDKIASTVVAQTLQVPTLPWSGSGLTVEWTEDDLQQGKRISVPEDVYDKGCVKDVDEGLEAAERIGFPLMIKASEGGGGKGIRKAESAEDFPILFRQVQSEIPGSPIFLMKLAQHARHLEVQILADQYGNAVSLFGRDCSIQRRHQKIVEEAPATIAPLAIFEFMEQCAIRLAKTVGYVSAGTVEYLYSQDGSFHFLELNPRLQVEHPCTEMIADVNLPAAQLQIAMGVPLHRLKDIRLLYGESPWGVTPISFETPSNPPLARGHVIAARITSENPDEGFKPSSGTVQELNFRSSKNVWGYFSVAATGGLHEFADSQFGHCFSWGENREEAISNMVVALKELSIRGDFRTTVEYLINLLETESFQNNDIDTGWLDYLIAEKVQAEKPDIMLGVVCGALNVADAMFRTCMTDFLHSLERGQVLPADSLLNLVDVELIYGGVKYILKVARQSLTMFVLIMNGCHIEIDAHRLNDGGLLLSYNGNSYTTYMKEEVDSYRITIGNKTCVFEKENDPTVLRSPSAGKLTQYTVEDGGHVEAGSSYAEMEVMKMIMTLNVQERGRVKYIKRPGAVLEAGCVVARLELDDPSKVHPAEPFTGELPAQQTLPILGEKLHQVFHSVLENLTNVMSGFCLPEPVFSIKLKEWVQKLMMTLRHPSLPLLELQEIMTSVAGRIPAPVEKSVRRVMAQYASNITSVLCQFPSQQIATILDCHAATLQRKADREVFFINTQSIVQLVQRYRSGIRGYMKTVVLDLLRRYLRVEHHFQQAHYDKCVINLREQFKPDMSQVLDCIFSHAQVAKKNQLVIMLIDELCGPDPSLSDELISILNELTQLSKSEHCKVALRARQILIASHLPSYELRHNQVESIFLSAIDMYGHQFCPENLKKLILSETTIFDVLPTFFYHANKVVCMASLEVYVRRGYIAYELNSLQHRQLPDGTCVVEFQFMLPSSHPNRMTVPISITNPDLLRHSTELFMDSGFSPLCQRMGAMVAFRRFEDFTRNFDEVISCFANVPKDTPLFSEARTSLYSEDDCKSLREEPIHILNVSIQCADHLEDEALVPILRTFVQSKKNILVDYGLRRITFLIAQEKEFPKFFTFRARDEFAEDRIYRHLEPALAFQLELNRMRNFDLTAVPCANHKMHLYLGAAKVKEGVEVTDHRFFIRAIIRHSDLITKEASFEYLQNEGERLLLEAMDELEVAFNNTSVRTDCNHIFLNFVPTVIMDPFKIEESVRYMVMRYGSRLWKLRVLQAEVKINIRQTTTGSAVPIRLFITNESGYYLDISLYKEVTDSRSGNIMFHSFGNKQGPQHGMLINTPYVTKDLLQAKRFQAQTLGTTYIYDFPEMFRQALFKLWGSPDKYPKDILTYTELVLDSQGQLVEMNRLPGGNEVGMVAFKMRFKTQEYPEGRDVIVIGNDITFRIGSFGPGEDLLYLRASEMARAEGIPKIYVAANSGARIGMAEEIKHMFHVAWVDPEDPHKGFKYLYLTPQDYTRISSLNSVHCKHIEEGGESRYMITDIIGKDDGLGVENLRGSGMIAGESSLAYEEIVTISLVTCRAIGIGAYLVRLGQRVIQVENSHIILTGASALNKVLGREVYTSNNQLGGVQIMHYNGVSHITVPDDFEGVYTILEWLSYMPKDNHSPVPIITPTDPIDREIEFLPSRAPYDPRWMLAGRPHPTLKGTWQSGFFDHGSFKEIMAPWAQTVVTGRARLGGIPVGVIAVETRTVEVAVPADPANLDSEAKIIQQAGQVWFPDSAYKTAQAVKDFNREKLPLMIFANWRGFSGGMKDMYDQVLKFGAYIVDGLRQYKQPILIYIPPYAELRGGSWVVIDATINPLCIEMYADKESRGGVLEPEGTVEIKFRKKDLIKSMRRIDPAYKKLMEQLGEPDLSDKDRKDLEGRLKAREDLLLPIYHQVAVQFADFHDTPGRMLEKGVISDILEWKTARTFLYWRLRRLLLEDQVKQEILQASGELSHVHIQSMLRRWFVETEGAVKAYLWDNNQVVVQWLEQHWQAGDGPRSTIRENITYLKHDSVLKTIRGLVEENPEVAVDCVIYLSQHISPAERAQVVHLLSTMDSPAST
Sequence of fungal (fACC2) (Q00955 whole entry): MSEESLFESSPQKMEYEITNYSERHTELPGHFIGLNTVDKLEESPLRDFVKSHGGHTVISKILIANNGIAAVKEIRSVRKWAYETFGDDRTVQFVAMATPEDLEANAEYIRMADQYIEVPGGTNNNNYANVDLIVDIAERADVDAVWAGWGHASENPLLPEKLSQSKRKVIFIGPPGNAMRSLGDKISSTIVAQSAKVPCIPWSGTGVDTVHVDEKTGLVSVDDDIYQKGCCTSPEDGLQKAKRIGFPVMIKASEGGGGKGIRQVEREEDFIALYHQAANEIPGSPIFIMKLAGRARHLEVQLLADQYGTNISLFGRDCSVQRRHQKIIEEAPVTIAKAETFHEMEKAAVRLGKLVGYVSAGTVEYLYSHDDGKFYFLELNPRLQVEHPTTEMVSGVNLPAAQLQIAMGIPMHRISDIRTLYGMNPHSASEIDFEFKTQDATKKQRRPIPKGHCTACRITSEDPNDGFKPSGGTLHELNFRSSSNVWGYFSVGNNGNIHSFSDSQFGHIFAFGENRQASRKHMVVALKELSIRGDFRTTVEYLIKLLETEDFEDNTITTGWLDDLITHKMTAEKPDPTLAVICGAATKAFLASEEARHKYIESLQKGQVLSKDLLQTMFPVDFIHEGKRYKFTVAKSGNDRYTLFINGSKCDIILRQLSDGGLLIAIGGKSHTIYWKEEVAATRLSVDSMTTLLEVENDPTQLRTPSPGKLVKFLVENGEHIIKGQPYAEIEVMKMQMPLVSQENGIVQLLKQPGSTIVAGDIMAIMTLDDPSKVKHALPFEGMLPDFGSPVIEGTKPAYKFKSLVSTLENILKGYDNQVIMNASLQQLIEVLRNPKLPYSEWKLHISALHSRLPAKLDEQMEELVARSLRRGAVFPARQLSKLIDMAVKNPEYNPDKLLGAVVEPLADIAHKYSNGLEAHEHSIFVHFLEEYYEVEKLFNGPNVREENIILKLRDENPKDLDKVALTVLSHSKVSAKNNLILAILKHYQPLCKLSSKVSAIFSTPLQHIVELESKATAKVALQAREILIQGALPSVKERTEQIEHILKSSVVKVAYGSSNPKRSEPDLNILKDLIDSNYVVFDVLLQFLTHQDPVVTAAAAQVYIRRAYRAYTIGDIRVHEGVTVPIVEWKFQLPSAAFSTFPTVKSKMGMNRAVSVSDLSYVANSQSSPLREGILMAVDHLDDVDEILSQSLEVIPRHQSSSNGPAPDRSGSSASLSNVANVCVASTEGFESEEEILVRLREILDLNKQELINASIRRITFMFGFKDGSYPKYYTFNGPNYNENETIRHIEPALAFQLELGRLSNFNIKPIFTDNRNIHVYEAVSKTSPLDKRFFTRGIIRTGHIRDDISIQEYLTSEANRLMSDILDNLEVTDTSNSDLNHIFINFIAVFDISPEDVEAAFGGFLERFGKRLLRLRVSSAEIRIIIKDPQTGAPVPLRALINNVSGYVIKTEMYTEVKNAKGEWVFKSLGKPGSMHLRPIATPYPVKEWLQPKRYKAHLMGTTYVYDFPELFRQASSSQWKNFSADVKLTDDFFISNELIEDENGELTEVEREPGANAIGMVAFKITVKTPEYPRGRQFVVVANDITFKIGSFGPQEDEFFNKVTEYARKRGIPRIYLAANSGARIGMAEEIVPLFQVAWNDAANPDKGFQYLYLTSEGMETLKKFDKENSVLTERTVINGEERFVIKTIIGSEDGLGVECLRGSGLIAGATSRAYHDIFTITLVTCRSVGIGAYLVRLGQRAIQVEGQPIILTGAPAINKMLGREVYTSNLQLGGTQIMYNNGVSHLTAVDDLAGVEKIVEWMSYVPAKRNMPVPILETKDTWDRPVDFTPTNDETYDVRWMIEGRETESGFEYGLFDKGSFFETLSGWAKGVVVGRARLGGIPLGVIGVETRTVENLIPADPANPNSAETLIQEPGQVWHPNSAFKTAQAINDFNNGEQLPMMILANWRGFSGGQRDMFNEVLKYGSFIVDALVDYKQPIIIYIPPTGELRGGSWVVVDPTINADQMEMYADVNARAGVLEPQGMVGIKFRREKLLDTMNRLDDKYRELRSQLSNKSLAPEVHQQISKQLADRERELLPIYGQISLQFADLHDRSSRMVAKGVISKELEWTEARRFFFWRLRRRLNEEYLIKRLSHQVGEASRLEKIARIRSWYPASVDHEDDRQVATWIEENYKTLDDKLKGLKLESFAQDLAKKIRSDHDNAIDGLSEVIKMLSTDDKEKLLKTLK

Which IC90 [1, 11] does the source give for `COc1ccc(F)cc1[C@H](Cn1c(=O)n(C(C)(C)C(N)=O)c(=O)c2c(C)c(-n3nccn3)sc21)OC1CCOCC1` [Compound I-1] here?
Its IC90 is 0.4 µg/mL (≈ 0.682 µM).

And the IC90 [1, 12]?
The IC90 was 0.4 µg/mL (≈ 0.682 µM).

What about the IC90 [2, 13] of the same compound?
The IC90 was 2 µg/mL (≈ 3.41 µM).

What about the IC90 [2, 14] of the same compound?
Its IC90 is 2 µg/mL (≈ 3.41 µM).

And the IC50 ([3]; Table 2a)?
Its IC50 is 5 to 10 nM.

What about the IC50 ([3]; Table 2b, additional results) of the same compound?
Its IC50 is 5 to 10 nM.

What about the MIC [4, 15] of the same compound?
Its MIC is 0.25 to 1 µg/mL (≈ 0.426 to 1.7 µM).

And the MIC [4, 16]?
The MIC was 0.25 to 1 µg/mL (≈ 0.426 to 1.7 µM).

What about the IC90 [5, 17] of the same compound?
The IC90 was 2 µg/mL (≈ 3.41 µM).

What about the IC90 [5, 18] of the same compound?
Its IC90 is 10 µg/mL (≈ 17 µM).

And the IC50 ([6]; Table 2a)?
Its IC50 is 1 to 5 nM.

And the IC50 ([6]; Table 2b, additional results)?
Its IC50 is 1 to 5 nM.

And the IC90 [7, 19]?
The IC90 was 2 µg/mL (≈ 3.41 µM).

And the IC90 [7, 20]?
Its IC90 is 2 µg/mL (≈ 3.41 µM).

What about the MIC [8, 21] of the same compound?
The MIC was 1.1 to 2 µg/mL (≈ 1.88 to 3.41 µM).

And the MIC [8, 22]?
Its MIC is 2.01 to 4 µg/mL (≈ 3.43 to 6.82 µM).

What about the IC90 [9, 23] of the same compound?
The IC90 was over 50 µg/mL.

And the IC90 [9, 24]?
Its IC90 is over 50 µg/mL.

What about the IC90 [10, 25] of the same compound?
The IC90 was 2 µg/mL (≈ 3.41 µM).

What about the IC90 [10, 26] of the same compound?
The IC90 was 2 µg/mL (≈ 3.41 µM).

With `COc1ccc(F)cc1[C@H](Cn1c(=O)n(C(C)(C)C(N)=O)c(=O)c2c(C)c(-n3nccn3)sc21)OC(C)C` [Compound I-2, (R)-2-(1-(2-(5-fluoro-2-methoxyphenyl)-2-isopropoxyethyl)-5-methyl-2,4-dioxo-6-(2H-1,2,3-triazol-2-yl)-1,4-dihydrothieno[2,3-d]pyrimidin-3(2H)-yl)-2-methylpropanamide] as the compound, how does the IC90 [1, 11] read?
The IC90 was 0.4 µg/mL (≈ 0.734 µM).

And the IC90 [1, 12]?
The IC90 was 0.4 µg/mL (≈ 0.734 µM).

And the IC90 [2, 13]?
Its IC90 is 0.4 µg/mL (≈ 0.734 µM).

And the IC90 [2, 14]?
The IC90 was 0.4 µg/mL (≈ 0.734 µM).

And the IC50 ([3]; Table 2a)?
Its IC50 is 1 to 5 nM.

What about the IC50 ([3]; Table 2b, additional results) of the same compound?
Its IC50 is 1 to 5 nM.

And the MIC [4, 15]?
Its MIC is 2.1 to 4 µg/mL (≈ 3.86 to 7.34 µM).

And the MIC [4, 16]?
The MIC was 1.01 to 2 µg/mL (≈ 1.85 to 3.67 µM).

And the IC90 [5, 17]?
Its IC90 is 0.08 µg/mL (≈ 0.147 µM).

And the IC90 [5, 18]?
Its IC90 is 0.08 µg/mL (≈ 0.147 µM).

And the IC50 ([6]; Table 2a)?
Its IC50 is 1 to 5 nM.

What about the IC50 ([6]; Table 2b, additional results) of the same compound?
Its IC50 is 1 to 5 nM.

What about the IC90 [7, 19] of the same compound?
The IC90 was 2 µg/mL (≈ 3.67 µM).

And the IC90 [7, 20]?
Its IC90 is 2 µg/mL (≈ 3.67 µM).

What about the MIC [8, 21] of the same compound?
Its MIC is 2.1 to 4 µg/mL (≈ 3.86 to 7.34 µM).

What about the MIC [8, 22] of the same compound?
The MIC was over 4.01 µg/mL.

And the IC90 [9, 23]?
The IC90 was over 50 µg/mL.

And the IC90 [9, 24]?
The IC90 was over 50 µg/mL.

And the IC90 [10, 25]?
The IC90 was 2 µg/mL (≈ 3.67 µM).

What about the IC90 [10, 26] of the same compound?
Its IC90 is 2 µg/mL (≈ 3.67 µM).

Which “Concentration at 90% Inhibition Fm” value [1, 11] does the source give for `CCNC(=O)C(C)(C)n1c(=O)c2c(C)c(-n3nccn3)sc2n(C[C@H](OC(C)C)c2cc(F)ccc2OC)c1=O` [Compound I-3, (R)—N-ethyl-2-(1-(2-(5-fluoro-2-methoxyphenyl)-2-isopropoxyethyl)-5-methyl-2,4-dioxo-6-(2H-1,2,3-triazol-2-yl)-1,4-dihydrothieno[2,3-d]pyrimidin-3(2H)-yl)-2-methylpropanamide] here?
The value was “AA (compound concentration of 0.08 ppm at 90% inhibition of fungal pathogens)”.

What about the IC90 [1] of the same compound?
Its IC90 is 0.08 µg/mL (≈ 0.14 µM).

What about the IC90 ([2]; read-out: Concentration at 90% Inhibition Fv, Fusarium virguliforme, growth inhibition at 48 hours vs 2% DMSO control) of the same compound?
Its IC90 is 0.4 µg/mL (≈ 0.698 µM).

What about the IC90 ([2]; read-out: Concentration at 90% Inhibition Fv, Fusarium virguliforme, growth inhibition vs 2% DMSO control at 48 hours) of the same compound?
Its IC90 is 0.4 µg/mL (≈ 0.698 µM).

What about the IC50 ([3]; Table 2a) of the same compound?
Its IC50 is 5 to 10 nM.

And the IC50 ([3]; Table 2b, additional results)?
The IC50 was 5 to 10 nM.

What about the MIC ([4]; read-out: MIC, C. albicans ATCC 90028, Table 3a, 3 replicates, MIC recorded at 48 h) of the same compound?
The MIC was 1.1 to 2 µg/mL (≈ 1.92 to 3.49 µM).

What about the MIC ([4]; read-out: MIC, C. albicans ATCC 90028, Table 3b (additional results), 3 replicates, MIC recorded at 48 h) of the same compound?
The MIC was 1.01 to 2 µg/mL (≈ 1.76 to 3.49 µM).

What about the IC90 ([5]; read-out: Concentration at 90% Inhibition Rs, Rhizoctonia solani, mycelial plugs, growth inhibition at 48 hours vs 2% DMSO control) of the same compound?
The IC90 was 0.08 µg/mL (≈ 0.14 µM).

And the IC90 ([5]; read-out: Concentration at 90% Inhibition Rs, Rhizoctonia solani, mycelial plugs, growth inhibition vs 2% DMSO control at 48 hours)?
Its IC90 is 0.08 µg/mL (≈ 0.14 µM).

What about the IC50 ([6]; Table 2a) of the same compound?
Its IC50 is 1 to 5 nM.

What about the IC50 ([6]; Table 2b, additional results) of the same compound?
The IC50 was 1 to 5 nM.

What about the IC90 ([7]; read-out: Concentration at 90% Inhibition Bc, Botrtyis cinerea, growth inhibition at 48 hours vs 2% DMSO control) of the same compound?
Its IC90 is 0.4 µg/mL (≈ 0.698 µM).

And the IC90 ([7]; read-out: Concentration at 90% Inhibition Bc, Botrtyis cinerea, growth inhibition vs 2% DMSO control at 48 hours)?
The IC90 was 0.4 µg/mL (≈ 0.698 µM).

And the MIC ([8]; read-out: MIC, C. parapsilosis ATCC 22019, Table 3a, 3 replicates, MIC recorded at 48 h)?
Its MIC is 1.1 to 2 µg/mL (≈ 1.92 to 3.49 µM).

And the MIC ([8]; read-out: MIC, C. parapsilosis ATCC 22019, Table 3b (additional results), 3 replicates, MIC recorded at 48 h)?
Its MIC is 2.01 to 4 µg/mL (≈ 3.51 to 6.98 µM).

What about the IC90 ([9]; read-out: Concentration at 90% Inhibition St, Septoria tritici, growth inhibition at 48 hours vs 2% DMSO control) of the same compound?
Its IC90 is 10 µg/mL (≈ 17.5 µM).

What about the IC90 ([9]; read-out: Concentration at 90% Inhibition St, Septoria tritici, growth inhibition vs 2% DMSO control at 48 hours) of the same compound?
The IC90 was over 50 µg/mL.

What about the IC90 ([10]; read-out: Concentration at 90% Inhibition Dm, Diplodia maydis, growth inhibition at 48 hours vs 2% DMSO control) of the same compound?
The IC90 was 0.4 µg/mL (≈ 0.698 µM).

And the IC90 ([10]; read-out: Concentration at 90% Inhibition Dm, Diplodia maydis, growth inhibition vs 2% DMSO control at 48 hours)?
The IC90 was 0.4 µg/mL (≈ 0.698 µM).
